In patent US5356915A, “Tetralones with pharmacological activity, compositions containing them” (J. Uriach & Cia. S.A., priority 1992, dated 1994):

Experiments:
[1] = tested on: noradrenaline induced contractions in isolated rat portal vein; test: Inhibition of noradrenaline induced contractions in isolated rat portal vein (Test 1); settings: 0.5 h, noradrenaline 3 μM, 30 min incubation, 37° C., pH 7.2, mean of at least two experiments
Description: Test 1: Inhibition of noradrenaline induced contractions in isolated rat portal vein.
Portal vein was extracted from adult male rats (b.w. 200-250 g), that had been stunned and exanguinated. Vein strips were suspended in an isolated organ bath (Letica) containing a physiological saline solution continuously bubbled with 5% CO2, 95% O2 gas at 37° C., pH 7.2. Contractions were induced by noradrenaline (3 μM) and were reverted after thorough washing with physiological saline solution. Portal vein contraction was measured with an isometric force transducer at an initial tension of 1 g. After two equal contractions with noradrenaline, performed in order to measure the tissue's basal response, the test compounds were incubated for 30 minutes and a new contraction was induced. The concentration that produces a 50% inhibition (IC50) versus the basal response was calculated. The experiment was repeated at least two times and the mean was calculated.

[2] = tested on: arterial pressure in conscious spontaneously hypertensive rats; test: Lowering of the arterial pressure in conscious spontaneously hypertensive rats (Test 2); format: in vivo, rat; settings: conscious spontaneously hypertensive male rats, caudal artery, at least 4 animals
Description: Test 2: Lowering of the arterial pressure in conscious spontaneously hypertensive rats.
Spontaneously hypertensive male rats (b.w. 200-250 g) were used. Diastolic and systolic arterial pressure were measured at the caudal artery using a sphygnomanometer (Letica 5007 and 5007/4) attached to the animal's tail. To ensure rapid and reliable data, animals were placed on a heating plate at 37° C., with the aim of producing a vasodilatation that ensured better fixation of the rat tail to the transducer chamber. During the experiment, rats were conscious and fixed by a clamp. The test products were administered orally. Arterial pressure was measured every 60 minutes over a period of 4 hours and 10 minutes before the administration of the test compound. […]

[3] = tested on: isolated guinea pig tracheal spirals; test: Direct relaxation of isolated guinea pig tracheal spirals (Test 3); settings: Cavia porcellus; 50% of maximum relaxation (isoproterenol 1×10^-6 M = maximum); isolated guinea pig tracheae; 37° C., pH 7.4; mean of at least two experiments
Description: Test 3 -Direct relaxation of isolated guinea pig tracheal spirals.
Tracheae were extracted from male guinea pigs of (b.w. 400 g) that had been stunned and exanguinated. Then, tracheae were cut in zigzag sections and placed in an isolated organ bath (Letica) containing Krebs-Henseleit solution at 37° C., pH 7.4, continuously bubbled with carbogen (95% O2 and 5% CO2). The relaxation of the tracheae was measured using an isometric force transducer. The basal tension was 0.5 g. The test compounds were cumulatively added to the bath and the effective concentration that produced 50% of the maximum relaxation (EC50) was calculated. The maximum relaxation was taken to be the relaxation induced by isoproterenol at 1×10^-6 M. The experiment was repeated at least two times and the mean was calculated.

| SMILES | IC50 [1] [nM] | EC50 [3] [nM] | Pressure Drop ± SEM ([2]; 1 mg/Kg p.o. (footnote *)) [mm Hg] | Pressure Drop ± SEM ([2]; 0.1 mg/Kg p.o.) [mm Hg] |
| --- | --- | --- | --- | --- |
| CC1(C)CC(c2cccc[n+]2[O-])c2cc(C#N)ccc2C1=O (racemic) [Compound 12, (±)-2,2-Dimethyl-4-(N-oxide-2-pyridyl)-1-oxo-1,2,3,4-tetrahydronaphthalen-6-carbonitrile] | 200 | 3000 | 95 ± 9 |  |
| CC1(C)C=C(c2cccc[n+]2[O-])c2cc(Br)ccc2C1=O [Compound 4, 6-Bromo-1,2-dihydro-2,2-dimethyl-4-(N-oxide-2-pyridyl)naphthalen-1-one] | 800 | 200 |  | 53 ± 8 |
| CC1(C)C=C(c2cccc[n+]2[O-])c2cc(C(F)(F)C(F)(F)F)ccc2C1=O [Compound 15, 1,2-Dihydro-2,2-dimethyl-4-(N-oxide-2-pyridyl)-6-pentafluoroethylnaphthalen-1-one] | 600 | 100 |  | 98 ± 20 |

Further compounds by falling IC50 [1], results first:

| IC50 [1] [nM] | EC50 [3] [nM] | SMILES | Pressure Drop ± SEM ([2]; 1 mg/Kg p.o. (footnote *)) [mm Hg] | Pressure Drop ± SEM ([2]; 0.1 mg/Kg p.o.) [mm Hg] |
| --- | --- | --- | --- | --- |
| 900 | 200 | CC1(C)C=C(c2cccc[n+]2[O-])c2cc(C#N)ccc2C1=O [Compound 10, 1,2-Dihydro-2,2-dimethyl-4-(N-oxide-2-pyridyl)-1-oxonaphthalen-6-carbonitrile] |  | 53 ± 15 |
| 500 | 200 | CC1(C)C=C(c2cccc[n+]2[O-])c2cc(Cl)c(Cl)cc2C1=O [Compound 18] |  | 74 ± 42 |
